Assays:
Conditions in all cases: 72 h
U2OS [1] = experiment: drug sensitivity score (DSS) for viability; higher = more toxic; extreme values may be limits of the assay
Caco-2 [2] = experiment: as above
HepG2 [3] = experiment: as above
Vero E6 [4] = experiment: as above
U2OS [5] = experiment: cell viability relative to DMSO; higher = less toxic
Caco-2 [6] = experiment: as above
HepG2 [7] = experiment: as above
Vero E6 [8] = experiment: as above
U2OS [9] = experiment: relative viability EC50 (midpoint between 100% and the lowest measured viability); higher = less toxic
Caco-2 [10] = experiment: as above
HepG2 [11] = experiment: as above
Vero E6 [12] = experiment: as above
Calu-3 [13] = experiment: drug sensitivity score (DSS) for viability; higher = more toxic; extreme values may be limits of the assay
Calu-3 [14] = experiment: cell viability relative to DMSO; higher = less toxic
Calu-3 [15] = experiment: relative viability EC50 (midpoint between 100% and the lowest measured viability); higher = less toxic

## FC(F)(F)c1ccc(/C=C/c2nc(COc3ccc(CCCCn4ccnn4)cc3)co2)cc1 [mubritinib]
U2OS [1]
  drug sensitivity score: 0
Caco-2 [2]
  drug sensitivity score: 3.1
HepG2 [3]
  drug sensitivity score: 10.8
Vero E6 [4]
  drug sensitivity score: 0
U2OS [5]; 1 nM
  cell viability: 100%
U2OS [5]; 10 nM
  cell viability: 103%
U2OS [5]; 100 nM
  cell viability: 93.7%
U2OS [5]; 1000 nM
  cell viability: 93.7%
U2OS [5]; 10000 nM
  cell viability: 97.2%
Caco-2 [6]; 1 nM
  cell viability: 97.5%
Caco-2 [6]; 10 nM
  cell viability: 109%
Caco-2 [6]; 100 nM
  cell viability: 92.5%
Caco-2 [6]; 1000 nM
  cell viability: 81.6%
Caco-2 [6]; 10000 nM
  cell viability: 84.9%
HepG2 [7]; 1 nM
  cell viability: 106%
HepG2 [7]; 10 nM
  cell viability: 104%
HepG2 [7]; 100 nM
  cell viability: 78.3%
HepG2 [7]; 1000 nM
  cell viability: 56%
HepG2 [7]; 10000 nM
  cell viability: 28.1%
Vero E6 [8]; 1 nM
  cell viability: 103%
Vero E6 [8]; 10 nM
  cell viability: 103%
Vero E6 [8]; 100 nM
  cell viability: 100%
Vero E6 [8]; 1000 nM
  cell viability: 103%
Vero E6 [8]; 10000 nM
  cell viability: 88.4%
U2OS [9]
  relative viability EC50: > 10 µM
Caco-2 [10]
  relative viability EC50: > 10 µM
HepG2 [11]
  relative viability EC50: 0.429 µM
Vero E6 [12]
  relative viability EC50: > 10 µM

## CC(C)CCC[C@@H](C)[C@H]1CC[C@H]2[C@@H]3CC=C4C[C@@H](O)CC[C@]4(C)[C@H]3CC[C@]12C [cholesterol]
U2OS [1]
  drug sensitivity score: 0
Caco-2 [2]
  drug sensitivity score: 0
HepG2 [3]
  drug sensitivity score: 0
Vero E6 [4]
  drug sensitivity score: 0
U2OS [5]; 1 nM
  cell viability: 102%
U2OS [5]; 10 nM
  cell viability: 93.3%
U2OS [5]; 100 nM
  cell viability: 98.2%
U2OS [5]; 1000 nM
  cell viability: 94%
U2OS [5]; 10000 nM
  cell viability: 100%
Caco-2 [6]; 1 nM
  cell viability: 89.4%
Caco-2 [6]; 10 nM
  cell viability: 92.1%
Caco-2 [6]; 100 nM
  cell viability: 102%
Caco-2 [6]; 1000 nM
  cell viability: 90.4%
Caco-2 [6]; 10000 nM
  cell viability: 98.9%
HepG2 [7]; 1 nM
  cell viability: 92.6%
HepG2 [7]; 10 nM
  cell viability: 97.4%
HepG2 [7]; 100 nM
  cell viability: 91.6%
HepG2 [7]; 1000 nM
  cell viability: 106%
HepG2 [7]; 10000 nM
  cell viability: 104%
Vero E6 [8]; 1 nM
  cell viability: 97.1%
Vero E6 [8]; 10 nM
  cell viability: 98.2%
Vero E6 [8]; 100 nM
  cell viability: 92.2%
Vero E6 [8]; 1000 nM
  cell viability: 97.6%
Vero E6 [8]; 10000 nM
  cell viability: 107%
U2OS [9]
  relative viability EC50: > 10 µM
Caco-2 [10]
  relative viability EC50: > 10 µM
HepG2 [11]
  relative viability EC50: > 10 µM
Vero E6 [12]
  relative viability EC50: > 10 µM

## O=C(Cc1cccc(OC(F)(F)F)c1)Nc1ccc(CCCCc2nnc(NC(=O)Cc3ccccn3)s2)nn1 [CB-839]
Calu-3 [13]
  drug sensitivity score: 1.5
U2OS [1]
  drug sensitivity score: 4.7
Caco-2 [2]
  drug sensitivity score: 0
HepG2 [3]
  drug sensitivity score: 8.4
Vero E6 [4]
  drug sensitivity score: 7.1
Calu-3 [14]; 1 nM
  cell viability: 107%
Calu-3 [14]; 10 nM
  cell viability: 102%
Calu-3 [14]; 100 nM
  cell viability: 89.5%
Calu-3 [14]; 1000 nM
  cell viability: 89.1%
Calu-3 [14]; 10000 nM
  cell viability: 86.6%
U2OS [5]; 1 nM
  cell viability: 99.6%
U2OS [5]; 10 nM
  cell viability: 105%
U2OS [5]; 100 nM
  cell viability: 92.6%
U2OS [5]; 1000 nM
  cell viability: 75.9%
U2OS [5]; 10000 nM
  cell viability: 82%
Caco-2 [6]; 1 nM
  cell viability: 94.9%
Caco-2 [6]; 10 nM
  cell viability: 98.7%
Caco-2 [6]; 100 nM
  cell viability: 101%
Caco-2 [6]; 1000 nM
  cell viability: 105%
Caco-2 [6]; 10000 nM
  cell viability: 106%
HepG2 [7]; 1 nM
  cell viability: 96.7%
HepG2 [7]; 10 nM
  cell viability: 89.2%
HepG2 [7]; 100 nM
  cell viability: 78.1%
HepG2 [7]; 1000 nM
  cell viability: 66.1%
HepG2 [7]; 10000 nM
  cell viability: 71.4%
Vero E6 [8]; 1 nM
  cell viability: 95.7%
Vero E6 [8]; 10 nM
  cell viability: 93.9%
Vero E6 [8]; 100 nM
  cell viability: 89.5%
Vero E6 [8]; 1000 nM
  cell viability: 65.2%
Vero E6 [8]; 10000 nM
  cell viability: 65.3%
Calu-3 [15]
  relative viability EC50: > 10 µM
U2OS [9]
  relative viability EC50: > 10 µM
Caco-2 [10]
  relative viability EC50: > 10 µM

## COc1c2occc2c(OC)c2c(=O)cc(C)oc12 [khellin]
U2OS [1]
  drug sensitivity score: 0
Caco-2 [2]
  drug sensitivity score: 0
HepG2 [3]
  drug sensitivity score: 0.3
Vero E6 [4]
  drug sensitivity score: 0
U2OS [5]; 1 nM
  cell viability: 103%
U2OS [5]; 10 nM
  cell viability: 98.6%
U2OS [5]; 100 nM
  cell viability: 99.5%
U2OS [5]; 1000 nM
  cell viability: 98.8%
U2OS [5]; 10000 nM
  cell viability: 96.3%
Caco-2 [6]; 1 nM
  cell viability: 97.1%
Caco-2 [6]; 10 nM
  cell viability: 110%
Caco-2 [6]; 100 nM
  cell viability: 94.9%
Caco-2 [6]; 1000 nM
  cell viability: 107%
Caco-2 [6]; 10000 nM
  cell viability: 102%
HepG2 [7]; 1 nM
  cell viability: 96.2%
HepG2 [7]; 10 nM
  cell viability: 99.2%
HepG2 [7]; 100 nM
  cell viability: 96.6%
HepG2 [7]; 1000 nM
  cell viability: 89%
HepG2 [7]; 10000 nM
  cell viability: 90.1%
Vero E6 [8]; 1 nM
  cell viability: 105%
Vero E6 [8]; 10 nM
  cell viability: 99.8%
Vero E6 [8]; 100 nM
  cell viability: 94.2%
Vero E6 [8]; 1000 nM
  cell viability: 99.7%
Vero E6 [8]; 10000 nM
  cell viability: 98.5%
U2OS [9]
  relative viability EC50: > 10 µM
Caco-2 [10]
  relative viability EC50: > 10 µM
HepG2 [11]
  relative viability EC50: > 10 µM
Vero E6 [12]
  relative viability EC50: > 10 µM
